Values after ≈ are worked out from the molar mass of the structure shown.
Assays:
K562 [1] = experiment: Cell cycle arrest in human K562 cells assessed as accumulation of cells at G2 phase at 20 nM after 48 hrs by propidium iodide staining-based flow cytometric analysis (reference value: 15.82%); type: functional
K562 [2] = experiment: Cell cycle arrest in human K562 cells assessed as accumulation of cells at G2 phase at 10 nM after 48 hrs by propidium iodide staining-based flow cytometric analysis (reference value: 15.82%); type: functional
K562 [3] = experiment: Cell cycle arrest in human K562 cells assessed as accumulation of cells at S phase at 10 nM after 48 hrs by propidium iodide staining-based flow cytometric analysis (reference value: 36.27%); type: functional
K562 [4] = experiment: Cell cycle arrest in human K562 cells assessed as accumulation of cells at G1 phase at 10 nM after 48 hrs by propidium iodide staining-based flow cytometric analysis (reference value: 47.91%); type: functional
K562 [5] = experiment: Antiproliferative activity against human K562 cells after 72 hrs by MTT assay; type: functional, cell-based; settings: K562, 72 h
KB = experiment: Antiproliferative activity against human KB cells after 72 hrs by MTT assay; type: functional, cell-based
HCT-8 = experiment: Antiproliferative activity against human HCT8 cells after 72 hrs by MTT assay; type: functional, cell-based; settings: HCT-8, 72 h
MDA-MB-231 = experiment: Antiproliferative activity against human MDA-MB-231 cells after 72 hrs by MTT assay; type: functional, cell-based; settings: MDA-MB-231, 72 h
L02 = experiment: Cytotoxicity against human LO2 cells after 72 hrs by MTT assay; type: cell-based; settings: L02, 72 h
[6] = Selectivity index, ratio of IC50 for human LO2 cells to IC50 for human HepG2 cells; type: toxicity; settings: LO2 cells and HepG2 cells, read-out: Ratio IC50
K562 [7] = experiment: Cell cycle arrest in human K562 cells assessed as accumulation of cells at G1 phase at 5 nM after 48 hrs by propidium iodide staining-based flow cytometric analysis (reference value: 47.91%); type: functional
K562 [8] = experiment: Cell cycle arrest in human K562 cells assessed as accumulation of cells at S phase at 5 nM after 48 hrs by propidium iodide staining-based flow cytometric analysis (reference value: 36.27%); type: functional
K562 [9] = experiment: Cell cycle arrest in human K562 cells assessed as accumulation of cells at G2 phase at 5 nM after 48 hrs by propidium iodide staining-based flow cytometric analysis (reference value: 15.82%); type: functional
K562 [10] = experiment: Induction of apoptosis in human K562 assessed as viable cells at 5 nM after 48 hrs by Annexin V-APC/propidium iodide staining-based flow cytometric analysis (reference value: 92.34%); type: functional; settings: K562, 48 h, read-out: Activity
K562 [11] = experiment: Induction of apoptosis in human K562 assessed as early apoptotic cells at 5 nM after 48 hrs by Annexin V-APC/propidium iodide staining-based flow cytometric analysis (reference value: 4.44%); type: functional
K562 [12] = experiment: Induction of apoptosis in human K562 assessed as late apoptotic cells at 5 nM after 48 hrs by Annexin V-APC/propidium iodide staining-based flow cytometric analysis (reference value: 1.30%); type: functional
K562 [13] = experiment: Induction of apoptosis in human K562 assessed as necrotic cells at 5 nM after 48 hrs by Annexin V-APC/propidium iodide staining-based flow cytometric analysis (reference value: 1.92%); type: functional
K562 [14] = experiment: Induction of apoptosis in human K562 assessed as viable cells at 10 nM after 48 hrs by Annexin V-APC/propidium iodide staining-based flow cytometric analysis (reference value: 92.34%); type: functional; settings: K562, 48 h, read-out: Activity
K562 [15] = experiment: Induction of apoptosis in human K562 assessed as early apoptotic cells at 10 nM after 48 hrs by Annexin V-APC/propidium iodide staining-based flow cytometric analysis (reference value: 4.44%); type: functional
K562 [16] = experiment: Induction of apoptosis in human K562 assessed as late apoptotic cells at 10 nM after 48 hrs by Annexin V-APC/propidium iodide staining-based flow cytometric analysis (reference value: 1.30%); type: functional
K562 [17] = experiment: Induction of apoptosis in human K562 assessed as necrotic cells at 10 nM after 48 hrs by Annexin V-APC/propidium iodide staining-based flow cytometric analysis (reference value: 1.92%); type: functional
K562 [18] = experiment: Induction of apoptosis in human K562 assessed as early apoptotic cells at 20 nM after 48 hrs by Annexin V-APC/propidium iodide staining-based flow cytometric analysis (reference value: 4.44%); type: functional
K562 [19] = experiment: Induction of apoptosis in human K562 assessed as late apoptotic cells at 20 nM after 48 hrs by Annexin V-APC/propidium iodide staining-based flow cytometric analysis (reference value: 1.30%); type: functional
K562 [20] = experiment: Induction of mitochondrial membrane potential disruption in human K562 cells assessed as intact mitochondrial membrane potential at 10 nM after 48 hrs by JC-1 staining-based flow cytometric analysis (reference value: 99.12%); type: functional
K562 [21] = experiment: Induction of mitochondrial membrane potential disruption in human K562 cells assessed as collapsed mitochondrial membrane potential at 5 nM after 48 hrs by JC-1 staining-based flow cytometric analysis (reference value: 0.63%); type: functional
K562 [22] = experiment: Induction of mitochondrial membrane potential disruption in human K562 cells assessed as collapsed mitochondrial membrane potential at 10 nM after 48 hrs by JC-1 staining-based flow cytometric analysis (reference value: 0.63%); type: functional
K562 [23] = experiment: Induction of mitochondrial membrane potential disruption in human K562 cells assessed as intact mitochondrial membrane potential at 20 nM after 48 hrs by JC-1 staining-based flow cytometric analysis (reference value: 99.12%); type: functional
K562 [24] = experiment: Induction of mitochondrial membrane potential disruption in human K562 cells assessed as collapsed mitochondrial membrane potential at 20 nM after 48 hrs by JC-1 staining-based flow cytometric analysis (reference value: 0.63%); type: functional
HUVEC = experiment: Antiproliferative activity against human HUVEC cells after 24 hrs by MTT assay; type: cell-based
[25] = Aqueous solubility in pH 7.4 phosphate buffer by HPLC analysis; type: physicochemical
[26] = Toxicity in ICR mouse assessed as mouse survival at 640 mg/kg, iv for 14 days relative to control; type: organism-based; settings: in vivo
[27] = Toxicity in iv dosed ICR mouse assessed as mouse survival for 14 days; type: organism-based; settings: in vivo
[28] = Antitumor activity against […] H22 cells xenografted in ICR mouse assessed as reduction in tumor weight at 20 mg/kg, iv qd for 21 consecutive days and measured every 2 days relative to control; type: functional; set-up: scale not given: the % may be the effect or the level left
[29] = Cardiotoxicity in ICR mouse xenografted with […] cells at 10 to 20 mg/kg, iv qd for 21 consecutive days by H and E staining-based assay; type: toxicity, organism-based; settings: in vivo
[30] = Hepatotoxicity in ICR mouse xenografted with […] cells at 10 to 20 mg/kg, iv qd for 21 consecutive days by H and E staining-based assay; type: toxicity, organism-based; settings: in vivo
[31] = Toxicity in ICR mouse xenografted with […] cells assessed as effect on lung at 10 to 20 mg/kg, iv qd for 21 consecutive days by H and E staining-based assay; type: organism-based; settings: in vivo
[32] = Renal toxicity in ICR mouse xenografted with […] cells at 10 to 20 mg/kg, iv qd for 21 consecutive days by H and E staining-based assay; type: organism-based; settings: in vivo
HepG2 = experiment: cells; settings: Homo sapiens, HepG2, 72 h

Structure (SMILES): COc1ccc(/C=C(\C)C(=O)c2cc(C)nc3ccccc23)cc1O
- Activity (K562 [1]): 26.98%
- Activity (K562 [2]): 22.85%
- Activity (K562 [3]): 24.94%
- Activity (K562 [4]): 52.22%
- IC50 (K562 [5]): 9 nM
- IC50 (KB): 16 nM
- IC50 (HCT-8): 15 nM
- IC50 (MDA-MB-231): 15 nM
- IC50 (L02): 987 nM
- selectivity ratio [6]: 65.8
- Activity (K562 [7]): 50.41%
- Activity (K562 [8]): 31.55%
- Activity (K562 [9]): 18.04%
- viability at 0.005 µM (K562 [10]): 80.2%
- Activity (K562 [11]): 12.87%
- Activity (K562 [12]): 4.34%
- Activity (K562 [13]): 2.63%
- viability at 0.01 µM (K562 [14]): 62.7%
- Activity (K562 [15]): 23.15%
- Activity (K562 [16]): 11.4%
- Activity (K562 [17]): 2.77%
- Activity (K562 [18]): 36.86%
- Activity (K562 [19]): 23.28%
- Activity (K562 [20]): 73.8%
- Activity (K562 [21]): 15.02%
- Activity (K562 [22]): 26.2%
- Activity (K562 [23]): 46.39%
- Activity (K562 [24]): 53.39%
- IC50 (HUVEC): 250 nM
- solubility [25]: 16 µg/mL (≈ 48 µM)
- survival at 336 h [26]: 60%
- LD50 at 336 h [27]: 666 mg/kg
- Activity [28]: 65.3%
- Activity [29]: Non-Toxic
- Activity [30]: Non-Toxic
- Activity [31]: Non-Toxic
- Activity [32]: Non-Toxic
- IC50 (HepG2): 15 nM

Reference: ChEMBL document CHEMBL4330075, “Discovery of Novel Quinoline-Chalcone Derivatives as Potent Antitumor Agents with Microtubule Polymerization Inhibitory Activity” (J Med Chem, 2019)
